From ChEMBL document CHEMBL3885881, “DrugMatrix”

Organism: Rattus norvegicus
Test: DrugMatrix - Regimen: Daily Repeat
Format: toxicity, organism-based, Sprague-Dawley
Design: regimen Daily Repeat, gender Male, age 6-8 weeks
Details: in vivo, po, route oral GAVAGE, vehicle .5 % CMC; for ABSOLUTE BASOPHIL / ABSOLUTE EOSINOPHIL / ABSOLUTE LYMPHOCYTE / ABSOLUTE MONOCYTE / ABSOLUTE SEGMENTED NEUTROPHIL / BASOPHIL / EOSINOPHIL / ERYTHROCYTE COUNT / HEMATOCRIT / HEMOGLOBIN / LEUKOCYTE COUNT / LYMPHOCYTE / MEAN CORPUSCULAR HEMOGLOBIN / MEAN CORPUSCULAR HEMOGLOBIN CONCENTRATION / MEAN CORPUSCULAR VOLUME / MONOCYTE / NEUTROPHIL / NUCLEATED RED BLOOD CELLS / PLATELET COUNT: tissue Blood; for ALANINE AMINOTRANSFERASE / ALBUMIN / ALKALINE PHOSPHATASE / ASPARTATE AMINOTRANSFERASE / BLOOD UREA NITROGEN / CARBON DIOXIDE / CHLORIDE / CHOLESTEROL / CREATINE PHOSPHOKINASE / CREATININE / GLUCOSE / LACTATE DEHYDROGENASE / LIPASE / PHOSPHORUS / POTASSIUM / SODIUM / TOTAL BILIRUBIN / TOTAL PROTEIN / URIC ACID: tissue Plasma
[1] = 0 mg/kg, 72 h, dose level Control, time 3 day
[2] = 0 mg/kg, 120 h, dose level Control, time 5 day
[3] = 25 mg/kg, 72 h, dose level Low, time 3 day
[4] = 25 mg/kg, 120 h, dose level Low, time 5 day

With CCCCC1C(=O)N(c2ccccc2)N(c2ccccc2)C1=O [PHENYLBUTAZONE] the “ABSOLUTE BASOPHIL” value [1] was 0 CELLS/uL, the “ABSOLUTE EOSINOPHIL” value [1] was 35.67 CELLS/uL and the “ABSOLUTE LYMPHOCYTE” value [1] was 9125.17 CELLS/uL. For the same molecule, the “ABSOLUTE MONOCYTE” value [1] was 50.17 CELLS/uL, the “ABSOLUTE SEGMENTED NEUTROPHIL” value [1] was 722.33 CELLS/uL and the BASOPHIL [1] was 0%. The EOSINOPHIL [1] was 0.33%, the “ERYTHROCYTE COUNT” value [1] was 5.35 x10E6/uL and the HEMATOCRIT [1] was 33.58%. For the same molecule, the HEMOGLOBIN [1] was 13.35 G/DL, the “LEUKOCYTE COUNT” value [1] was 9.93 x10E3/uL and the LYMPHOCYTE [1] was 91.67%. The “MEAN CORPUSCULAR HEMOGLOBIN” value [1] was 25 pg, the “MEAN CORPUSCULAR HEMOGLOBIN CONCENTRATION” value [1] was 39.8 G/DL and the “MEAN CORPUSCULAR VOLUME” value [1] was 62.77 fL. The MONOCYTE [1] was 0.67%, the NEUTROPHIL [1] was 7.33% and the “NUCLEATED RED BLOOD CELLS” value [1] was 0 /100WBC. For the same molecule, the “PLATELET COUNT” value [1] was 866.17 x10E3/uL, the “ALANINE AMINOTRANSFERASE” value [1] was 57.17 u/L and the ALBUMIN [1] was 4.22 G/DL. For the same molecule, the “ALKALINE PHOSPHATASE” value [1] was 391 u/L, the “ASPARTATE AMINOTRANSFERASE” value [1] was 95.17 u/L and the “BLOOD UREA NITROGEN” value [1] was 13.67 mg/dL. The “CARBON DIOXIDE” value [1] was 30 mmol/L, the CHLORIDE [1] was 102.5 MEQ/L and the CHOLESTEROL [1] was 72 mg/dL. For the same molecule, the “CREATINE PHOSPHOKINASE” value [1] was 485.67 u/L, the CREATININE [1] was 0.27 mg/dL and the GLUCOSE [1] was 152 mg/dL. For the same molecule, the “LACTATE DEHYDROGENASE” value [1] was 372.67 u/L, the LIPASE [1] was 9.83 u/L and the PHOSPHORUS [1] was 12.47 mg/dL. For the same molecule, the POTASSIUM [1] was 6.81 MEQ/L, the SODIUM [1] was 144.1 MEQ/L and the “TOTAL BILIRUBIN” value [1] was 0.23 mg/dL. The “TOTAL PROTEIN” value [1] was 5.93 G/DL, the “URIC ACID” value [1] was 1.9 mg/dL and the “ABSOLUTE BASOPHIL” value [2] was 0 CELLS/uL. For the same molecule, the “ABSOLUTE EOSINOPHIL” value [2] was 67.33 CELLS/uL, the “ABSOLUTE LYMPHOCYTE” value [2] was 11419.17 CELLS/uL and the “ABSOLUTE MONOCYTE” value [2] was 203.17 CELLS/uL. The “ABSOLUTE SEGMENTED NEUTROPHIL” value [2] was 1327 CELLS/uL, the BASOPHIL [2] was 0% and the EOSINOPHIL [2] was 0.5%. For the same molecule, the “ERYTHROCYTE COUNT” value [2] was 5.65 x10E6/uL, the HEMATOCRIT [2] was 35.3% and the HEMOGLOBIN [2] was 13.98 G/DL. The “LEUKOCYTE COUNT” value [2] was 13.02 x10E3/uL, the LYMPHOCYTE [2] was 88% and the “MEAN CORPUSCULAR HEMOGLOBIN” value [2] was 24.78 pg. The “MEAN CORPUSCULAR HEMOGLOBIN CONCENTRATION” value [2] was 39.63 G/DL, the “MEAN CORPUSCULAR VOLUME” value [2] was 62.58 fL and the MONOCYTE [2] was 1.33%. For the same molecule, the NEUTROPHIL [2] was 10.17%, the “NUCLEATED RED BLOOD CELLS” value [2] was 0 /100WBC and the “PLATELET COUNT” value [2] was 1213.83 x10E3/uL. For the same molecule, the “ALANINE AMINOTRANSFERASE” value [2] was 49.67 u/L, the ALBUMIN [2] was 4.28 G/DL and the “ALKALINE PHOSPHATASE” value [2] was 362.33 u/L. The “ASPARTATE AMINOTRANSFERASE” value [2] was 99 u/L, the “BLOOD UREA NITROGEN” value [2] was 20.67 mg/dL and the “CARBON DIOXIDE” value [2] was 26.33 mmol/L. The CHLORIDE [2] was 102 MEQ/L, the CHOLESTEROL [2] was 63.83 mg/dL and the “CREATINE PHOSPHOKINASE” value [2] was 481.83 u/L. For the same molecule, the CREATININE [2] was 0.21 mg/dL, the GLUCOSE [2] was 158 mg/dL and the “LACTATE DEHYDROGENASE” value [2] was 656.33 u/L. It also gave an LIPASE [2] of 10.67 u/L, a PHOSPHORUS [2] of 12.27 mg/dL and a POTASSIUM [2] of 6.17 MEQ/L. The SODIUM [2] was 143.35 MEQ/L, the “TOTAL BILIRUBIN” value [2] was 0.17 mg/dL and the “TOTAL PROTEIN” value [2] was 6.13 G/DL. The “URIC ACID” value [2] was 1.48 mg/dL, the “ABSOLUTE BASOPHIL” value [3] was 0 CELLS/uL and the “ABSOLUTE EOSINOPHIL” value [3] was 0 CELLS/uL. The “ABSOLUTE LYMPHOCYTE” value [3] was 8397.33 CELLS/uL, the “ABSOLUTE MONOCYTE” value [3] was 56.33 CELLS/uL and the “ABSOLUTE SEGMENTED NEUTROPHIL” value [3] was 846.33 CELLS/uL. For the same molecule, the BASOPHIL [3] was 0%, the EOSINOPHIL [3] was 0% and the “ERYTHROCYTE COUNT” value [3] was 5.18 x10E6/uL. The HEMATOCRIT [3] was 33.27%, the HEMOGLOBIN [3] was 13.33 G/DL and the “LEUKOCYTE COUNT” value [3] was 9.3 x10E3/uL. The LYMPHOCYTE [3] was 90.67%, the “MEAN CORPUSCULAR HEMOGLOBIN” value [3] was 25.83 pg and the “MEAN CORPUSCULAR HEMOGLOBIN CONCENTRATION” value [3] was 40.17 G/DL. The “MEAN CORPUSCULAR VOLUME” value [3] was 64.37 fL, the MONOCYTE [3] was 0.67% and the NEUTROPHIL [3] was 8.67%. For the same molecule, the “NUCLEATED RED BLOOD CELLS” value [3] was 0 /100WBC, the “PLATELET COUNT” value [3] was 982.67 x10E3/uL and the “ALANINE AMINOTRANSFERASE” value [3] was 57 u/L. For the same molecule, the ALBUMIN [3] was 4.4 G/DL, the “ALKALINE PHOSPHATASE” value [3] was 377 u/L and the “ASPARTATE AMINOTRANSFERASE” value [3] was 101.33 u/L. The “BLOOD UREA NITROGEN” value [3] was 16.33 mg/dL, the “CARBON DIOXIDE” value [3] was 29.33 mmol/L and the CHLORIDE [3] was 103 MEQ/L. The CHOLESTEROL [3] was 73 mg/dL, the “CREATINE PHOSPHOKINASE” value [3] was 583.33 u/L and the CREATININE [3] was 0.17 mg/dL. The GLUCOSE [3] was 154.67 mg/dL, the “LACTATE DEHYDROGENASE” value [3] was 337.67 u/L and the LIPASE [3] was 8.67 u/L. The PHOSPHORUS [3] was 12.6 mg/dL, the POTASSIUM [3] was 6.38 MEQ/L and the SODIUM [3] was 143.37 MEQ/L. The “TOTAL BILIRUBIN” value [3] was 0.13 mg/dL, the “TOTAL PROTEIN” value [3] was 5.87 G/DL and the “URIC ACID” value [3] was 1.67 mg/dL. For the same molecule, the “ABSOLUTE BASOPHIL” value [4] was 0 CELLS/uL, the “ABSOLUTE EOSINOPHIL” value [4] was 72 CELLS/uL and the “ABSOLUTE LYMPHOCYTE” value [4] was 8896 CELLS/uL. The “ABSOLUTE MONOCYTE” value [4] was 33 CELLS/uL, the “ABSOLUTE SEGMENTED NEUTROPHIL” value [4] was 999 CELLS/uL and the BASOPHIL [4] was 0%. For the same molecule, the EOSINOPHIL [4] was 0.67%, the “ERYTHROCYTE COUNT” value [4] was 5 x10E6/uL and the HEMATOCRIT [4] was 31.63%. The HEMOGLOBIN [4] was 12.6 G/DL, the “LEUKOCYTE COUNT” value [4] was 10 x10E3/uL and the LYMPHOCYTE [4] was 89%. For the same molecule, the “MEAN CORPUSCULAR HEMOGLOBIN” value [4] was 25.27 pg, the “MEAN CORPUSCULAR HEMOGLOBIN CONCENTRATION” value [4] was 39.87 G/DL and the “MEAN CORPUSCULAR VOLUME” value [4] was 63.4 fL. The MONOCYTE [4] was 0.33%, the NEUTROPHIL [4] was 10% and the “NUCLEATED RED BLOOD CELLS” value [4] was 0 /100WBC. For the same molecule, the “PLATELET COUNT” value [4] was 635.33 x10E3/uL, the “ALANINE AMINOTRANSFERASE” value [4] was 52 u/L and the ALBUMIN [4] was 4.53 G/DL. The “ALKALINE PHOSPHATASE” value [4] was 362 u/L, the “ASPARTATE AMINOTRANSFERASE” value [4] was 82.33 u/L and the “BLOOD UREA NITROGEN” value [4] was 20 mg/dL. The “CARBON DIOXIDE” value [4] was 25 mmol/L, the CHLORIDE [4] was 105.67 MEQ/L and the CHOLESTEROL [4] was 71.33 mg/dL. For the same molecule, the “CREATINE PHOSPHOKINASE” value [4] was 253 u/L, the CREATININE [4] was 0.26 mg/dL and the GLUCOSE [4] was 148 mg/dL. The “LACTATE DEHYDROGENASE” value [4] was 409.67 u/L, the LIPASE [4] was 11 u/L and the PHOSPHORUS [4] was 11.9 mg/dL. For the same molecule, the POTASSIUM [4] was 6.52 MEQ/L, the SODIUM [4] was 146.6 MEQ/L and the “TOTAL BILIRUBIN” value [4] was 0.2 mg/dL. For the same molecule, the “TOTAL PROTEIN” value [4] was 6.2 G/DL and the “URIC ACID” value [4] was 1.47 mg/dL.
